Where two headings read alike, the source gives them in different places.

A short description of series [1]: Dissociation constant in water (pKa value) of amine. The series is classed as physicochemical. The source says:
If more than one type of amine group is present in the molecule then the relevant pKa value is that of the most basic amine group.

Series [2] is described as follows: Relative water solubility of amine. The note with it: amine base.
Setting [3] is: amine base, in water, read-out: pKa.

Consider `C=C(C)C(=O)OCCN(C)C` [DMAEMA, dimethylaminoethylmethacrylate], for which the pKa in series [1] (setting [3]) worked out at 5.4. The “Rel. W. Sol” value in series [2] was “high”.
Consider `Nc1ccccc1` [aniline], for which, in series [2], the “Rel. W. Sol” value is listed as “insoluble”.
Regarding `NCCCCCCCCCCCCN` [dodecylene diamine], in series [1] (water), the pKa was 11.8. Further, the “Rel. W. Sol” value in series [2] is given as “insoluble”.
Consider `CCN` [ethylamine], for which, in series [2], the “Rel. W. Sol” value is reported as “high”.
Same read-out and setting: in the case of `NCCN` [ethylene diamine] it was “high”.
Take `Cc1ccccc1N` [o-toluidine]: the pKa in series [1] (setting [3]) was found to be 6. Also, the “Rel. W. Sol” value in series [2] was “insoluble”.
vinyl pyridine registered a pKa in series [1] (water) of 5.4.

The values are drawn from patent US4137380A, “Polyester granules and process” (priority 1972, dated 1979).
